Reference: PubChem BioAssay (NCI)
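Step 1: Grow cells in 96-well plates. Step 2: Expose to compound for 48 hours at 5 concentrations. Step 3: Interpolate endpoints linearly; if unreached, use highest concentration. The concentration for full growth arrest is given as TGI.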

What was measured:
Assay in all cases: NCI tumour cell line growth inhibition, 48 h
OVCAR-4 ovarian = test system: OVCAR-4 ovarian
RXF 393 renal = test system: RXF 393 renal
MALME-3M melanoma = test system: MALME-3M melanoma
U251 CNS = test system: U251 CNS
K-562 leukemia = test system: K-562 leukemia
SF-539 CNS = test system: SF-539 CNS
SK-MEL-5 melanoma = test system: SK-MEL-5 melanoma
A549 NSCLC = test system: A549 NSCLC
OVCAR-5 ovarian = test system: OVCAR-5 ovarian
HCT-116 colon = test system: HCT-116 colon
ACHN renal = test system: ACHN renal
HCT-15 colon = test system: HCT-15 colon
UO-31 renal = test system: UO-31 renal
786-0 renal = test system: 786-0 renal
HOP-92 NSCLC = test system: HOP-92 NSCLC
A498 renal = test system: A498 renal

Compound | TGI (OVCAR-4 ovarian) [µM] | TGI (RXF 393 renal) [µM] | TGI (MALME-3M melanoma) [µM] | TGI (U251 CNS) [µM] | TGI (K-562 leukemia) [µM] | TGI (SF-539 CNS) [µM] | TGI (SK-MEL-5 melanoma) [µM] | TGI (A549 NSCLC) [µM] | TGI (OVCAR-5 ovarian) [µM] | TGI (HCT-116 colon) [µM] | TGI (ACHN renal) [µM] | TGI (HCT-15 colon) [µM] | TGI (UO-31 renal) [µM] | TGI (786-0 renal) [µM] | TGI (HOP-92 NSCLC) [µM] | TGI (A498 renal) [µM]
COc1cc([C@@H]2c3cc4c(cc3[C@@H](Nc3ccccc3C(=O)c3ccccc3)[C@H]3COC(=O)[C@H]23)OCO4)cc(OC)c1OC | > 100 | > 100 | > 100 | 0.979 | > 100 | 0.638 | 2.93 | > 100 | > 100 | > 100 | > 100 | 1.18 | > 100 | > 100 |  | 
O=C(CCCCCCCCC(=O)N1C(=O)CC(=O)N(c2ccccc2)C1=S)N1C(=O)CC(=O)N(c2ccccc2)C1=S | > 100 | > 100 | > 100 | > 100 |  |  | > 100 | > 100 | > 100 | > 100 | > 100 | > 100 | > 100 | > 100 | > 100 | > 100
COc1ccc(/C=C2\CCS(=O)(=O)c3ccccc3C2=O)cc1OC | 71.5 | > 100 |  | > 100 | > 100 | > 100 |  | > 100 | > 100 | > 100 | > 100 | 50.4 | > 100 | > 100 | > 100 | 73.7
COc1cc2cc(C(=O)N3CC(CCl)c4c3cc(NC(=O)OCc3ccc([N+](=O)[O-])cc3)c3ccccc43)[nH]c2c(OC)c1OC (centres undefined) | > 100 | > 100 | > 100 | > 100 |  | > 100 | > 100 | > 100 | > 100 | > 79.8 | > 34.5 | > 100 | 0.516 | > 39.3 | > 90.5 | 
CCC/C=C1\CCC(CN(C)C)C1=O (centres undefined) | 38.6 |  | 11.4 | 15.6 |  | 25.3 | 32.3 | > 62.2 | 35.6 | 23.1 | 11.2 | 6.68 | 26.6 | 7.16 | 6.8 | 23.9
O=c1[nH]c2ccccc2c(O)c1/C=N/C(=S)NCc1ccccc1 |  |  |  | > 100 |  | > 100 | > 100 | > 100 | > 100 | > 100 | > 100 |  | > 100 | > 100 | > 100 | 
CCOP(=O)(OCC)C(c1ccccc1)N(C(=O)NC(F)(F)F)c1cccc(F)c1 (centres undefined) |  | > 100 | > 100 | > 100 | > 100 | > 100 | > 100 | > 100 |  | > 100 | > 100 | > 100 | > 100 | > 100 |  | 
CC(C)CCCC(C)[C@H]1CC[C@H]2[C@@H]3CC[C@H]4C[C@@H](CCC=C(c5cc(Cl)c(O)c(C(=O)OC(C)C)c5)c5cc(Cl)c(O)c(C(=O)OC(C)C)c5)CC[C@]4(C)[C@H]3CC[C@]12C (some centres undefined) | > 50 | > 50 |  | > 50 | > 50 | > 50 | > 50 | > 50 | > 50 | > 50 |  | > 50 |  | > 50 | > 50 | > 50
O=C(CCCCCC(=O)N1CC(CCl)c2ccc([N+](=O)[O-])cc21)N1CC(CCl)c2ccc([N+](=O)[O-])cc21 (centres undefined) | > 100 | > 100 |  | > 100 | > 100 | > 100 | > 100 |  | > 100 | > 100 | > 100 | > 100 | > 100 | > 100 | > 100 | > 100
C=C1C(=O)O[C@H]2[C@H]3O[C@@H](C[C@@H]12)[C@@]1(C)CC[C@H](O1)[C@H](C)CCC[C@H]3C | 3.4 | 5.24 | 3.24 | 2.82 | 3.59 |  | 2.72 | 5.09 | 3.38 | 2.49 | 2.84 | 3.55 | 2.9 | 2.63 | 3.48 | 3.17
Brc1ccc2c3c1[C@H]1O[C@H]1c1cccc(c1-3)[C@@H]1O[C@H]21 | 28.8 |  | 33 | 37.1 | > 100 |  | 30.2 | 49.4 | 37.2 | 37.8 | 31.9 | 49.1 | 32.1 | 34.6 | 38.3 | 41.1
O=C1c2ccccc2C(=O)c2c(O)c(NCCCNCCO)cc(O)c21 | 36.4 |  | 31.2 | 21.1 | 3.5 | 22.2 |  | 23.7 | 24.6 |  | 15.9 | 24.6 | 19.5 | 23 | 31.7 | 33.1
CC(=O)c1ccccc1NCC(=O)Nn1cnc2ccc(S(=O)(=O)Nc3ccccc3C(C)=O)cc2c1=O | > 100 |  | > 100 | > 100 | > 100 | > 100 |  | > 100 | > 100 | > 100 | > 100 | > 100 | > 100 | > 100 | > 100 | 
CCCC(C)n1c(C)nc2c1C(=O)c1ccccc1C2=O (centres undefined) | > 100 | 69.2 | 67 | > 100 | > 100 | 98 | 30 | > 100 |  | 19.5 | 95.8 | > 100 | 93.3 | > 100 | 66.8 | 
CN(CCO)CCCC1COc2ccccc2O1 (centres undefined) | > 100 | > 100 | > 100 | > 100 | > 100 | > 100 | > 100 | > 100 | > 100 | > 100 | > 100 | > 100 | > 100 | > 100 | > 100 | 
O=c1oc2ccc([N+](=O)[O-])cc2c(Nc2ccc3c(c2)Sc2ccccc2O3)c1[N+](=O)[O-] | 98.2 | 40.2 | > 100 | 33.6 | 88.3 | 37.7 | 41.1 | 73.9 | 47.2 | 30.5 | 72 | 35 | 37.8 | 39.9 | 41.6 | 
Cc1ccc(C(=O)N(Cc2ccccc2)Cc2ccccc2)cc1N=NN(C)C | > 87.4 |  | 40.6 | > 100 | > 100 | 44.9 | 27.3 | > 100 | > 100 | 30 | > 92.7 | > 90.1 | > 71 | > 100 | 70.1 | 
NNc1nncc2[nH]cnc12 |  | > 100 |  | > 100 | > 100 | > 100 | > 100 | > 100 | > 100 | > 100 | > 100 | > 100 | > 100 | > 100 |  | > 100
CN(C)c1ccc(C=C2C(=O)N(c3ccccc3)N(c3ccccc3)C2=O)cc1 |  |  | > 100 | > 100 | > 100 |  | > 100 | > 100 | > 100 | > 100 | > 100 | > 100 | > 100 | > 100 | 65.1 | > 100
COc1ccc2c(c1)C/C(=C\c1cccc3ccccc13)C2=O | > 100 | 22.5 |  | 81.3 | > 100 | 44.8 | > 100 | > 100 | > 100 |  | > 100 | > 100 | > 100 | 77.7 |  | > 100
COC1CC(OC2C(C)OC(OC3C(C)OC(OC4C(O)CC(O[C@H]5CC[C@@]6(C)C(=CC[C@]7(O)[C@@H]6C[C@@H](OC(C)=O)[C@@]6(C)[C@]7(O)CC[C@@]6(O)C(C)=O)C5)OC4C)CC3OC)CC2OC)OC(C)C1O (some centres undefined) | > 12.5 |  | > 12.5 | > 12.5 | > 12.5 | > 12.5 | > 12.5 | > 12.5 | > 12.5 | > 12.5 | > 12.5 | > 12.5 | > 12.5 | > 12.5 | > 12.5 | 
CCn1c(SC(C)C(=O)c2c(C)n(C)n(-c3ccccc3)c2=O)nc2ccccc2c1=O (centres undefined) | > 100 |  | > 100 | > 100 |  | > 100 | > 100 | > 100 | > 100 | > 100 | > 100 | > 100 | > 100 | > 100 | > 100 | > 100
CCCCCCNC(=O)CCC(NC(=O)c1ccc(N(C)Cc2cnc3nc(N)nc(N)c3n2)cc1)C(=O)NCCCCCC (centres undefined) | > 100 | > 100 |  | > 100 | > 100 |  | > 100 | > 100 | > 100 | > 100 | > 100 | > 100 | > 100 | > 100 | > 100 | > 100
COc1cc(CNc2cnc3cc(N)ccc3n2)cc(OC)c1OC | > 100 |  | > 100 | > 100 | > 100 | 42.4 | > 100 | > 100 | > 100 | 50.2 | > 100 | > 100 | > 100 | > 100 | > 100 | > 100
O=C(O)C[C@@H]1[C@@H](O)[C@@H](O)CN2C(=O)c3ccccc3[C@H]12 | > 100 | > 100 | > 100 | > 100 | > 100 | > 100 | > 100 | > 100 | > 100 | > 100 | > 100 | > 100 | > 100 | > 100 |  | > 100
CCCCCc1cc2cc3c(c(O)c2c(=O)[nH]1)C1(CCC3)C(O)=c2c(=O)c3c(=O)cc(OC)c(=O)c=3c(=O)c2=C1O (centres undefined) | 4.44 | 1.82 | 2.95 | 2.61 | > 18.7 |  | 1.69 | 3.53 | 4.47 | 2.41 | 2.25 | 2.33 | 1.94 | 2.69 | 1.3 | 4.58
CSC1C(=O)Nc2ccc3ccccc3c21 (centres undefined) | 39.9 |  | > 100 | 33.6 |  | 45.7 | 57.4 | > 100 | > 100 | 29.9 | 92.4 | 38.4 | 33.2 | 32.6 | 40.6 | 
COc1cc(C2=NNC(=O)c3ccccc3N2c2nc(-c3cccs3)nc3ccc(Br)cc23)cc(OC)c1OC | 86.4 |  | 59.1 | 92.9 |  | 24.2 | 50.4 | > 100 | > 100 | 26.9 | 63.3 | 24 | > 100 | > 100 | 27.7 | 91.9
CCN(CC)C(=S)Nc1ccc(-c2cc3ccc(O)cc3oc2=O)cc1 |  | > 100 | 69.2 | 85.1 | > 100 | > 100 | 48.8 | > 100 | 79.5 | > 100 | > 100 | 67.6 | > 100 | > 100 |  | 96.5
CC(=O)OCc1cncn1S(=O)(=O)c1ccc(C)cc1 | > 100 | > 100 | > 100 | > 100 | > 100 | > 100 | > 100 | > 100 | > 100 | > 100 | > 100 | > 100 | > 100 | > 100 | > 100 | 
